# How the values were obtained:
# [1] = rats of the experimental groups
# Description: (§1) The aim of this experiment was to study the relationship between the blood level of AKG and survival of elderly rats. Forty Sprague-Dawley rats randomly chosen (2-3 years old) from the Department of Cell & Organisms Biology in Lund University were used in the experiment. The rats were divided into four groups, 10 rats each, two control groups and two experiment groups. […] The mixtures were titrated with 0.01 M NaOH to correct the pH.
# (§2) Blood samples were taken at the beginning of the experiment from all rats and blood AKG levels were estimated. Experimental time was 8 weeks and parameters as AKG blood levels and survival were monitored.
# [2] = tested on: Sprague-Dawley rats (2-3 years old); settings: experimental groups, 8 weeks
# Description: as §1, §2
smiles,measurement,setting,value
"O=C([O-])CCC(=O)C(=O)[O-].[Na+].[Na+] [Na2AKG * 2H2O, sodium alpha-ketoglutarate]",Blood levels of AKG after oral feeding,[1],over 0.5 μg/ml
same,Survival of rats with initially low blood AKG (under 0.1 μg/ml),[2],did survive the whole experiment
